This is an account of results in PMC5754413, “Mass balance, metabolic disposition, and pharmacokinetics of a single oral dose of regorafenib in healthy human subjects” (Cancer Chemotherapy and Pharmacology, 2017).

Where two headings read alike, the source gives them in different places.

Data set [1] is described as follows: Pharmacokinetics of regorafenib in plasma (HPLC–MS/MS) after a single oral 120 mg dose in healthy male subjects. To be noted: for half-life: plasma. Format: in vivo, human. The protocol:
Subjects were screened within the 28 days before scheduled drug administration and entered the clinical unit 1 day before drug administration. After an overnight fasting, subjects received a single oral 120 mg dose of regorafenib, containing approximately 100 μCi (3.7 MBq) [^14C]regorafenib, as a 6 mL solution in an aqueous PEG-based vehicle (Diluent Sol 30 mL oral, Bayer HealthCare AG) followed by 240 mL water. The associated radiation exposure fell within International Commission on Radiological Protection Guidelines for Category IIa studies (0.1–1 mSv).
Blood and plasma: Blood samples (18.7 mL per each time point) were collected into nonbeaded lithium-heparinized tubes immediately pre-dose and at the following post-dose times: 0.5, 1, 1.5, 2, 2.5, 3, 4, 6, 9, 12, 16, 20, 24, 36, 48, 72, 96, 120, 144, 192, 240, and 288 h. For each sample, 1 mL of whole blood was stored at 4 °C for subsequent LSC and the remainder was processed for plasma. Individual 150 μL plasma samples for each time point were treated with formic acid (20 μL) and acetonitrile (450 μL). The samples were homogenized using a MS2 Minishaker® (IKA® Labortechnik, Staufen im Breisgau, Germany). The precipitated proteins were removed by centrifugation (5 min, 13,000 rpm, Biofuge). After concentrating the supernatant to about 80 μL, methanol (15 μL) was added. The individual samples were analyzed by HPLC with off-line radioactivity detection for metabolite profiling.
Quantitative analysis of regorafenib in plasma was performed after protein precipitation using a fully validated HPLC–MS/MS assay. The analyses were performed in accordance with the 2001 FDA guidelines on bioanalytical validation. [^2H3,^15N]-regorafenib was used as internal standard (final concentration: 12.5 µg/L). The calibration range was from 2.00 µg/L to 2.00 mg/L. Quality control samples in the concentration range 5.00 µg/L to […] were determined with an accuracy of 98.1–103% and a precision of 1.55–10.0% (n = 6–8/concentration). All samples were stored at or below − 15 °C and analyzed within 14 days after sample receipt.
Pharmacokinetic outcome measures were generated by non-compartmental analysis of plasma concentration–time data using WinNonlin v4.1 (Pharsight Corporation) in conjunction with Kincalc v2.50 (Bayer AG). For individual subjects, primary outcome measures were maximum observed concentration (C max) and area under the concentration–time curve from time zero to infinity (AUC). […] The metabolite or regorafenib percentages were calculated by AUC(0–144)metabolite or regorafenib divided by AUC(0–144)radioactivity calculated from data obtained by HPLC–LSC analysis. Secondary outcomes were: time to C max (t max); apparent terminal elimination half-life (t ½); apparent volume of distribution during the terminal phase after extravascular administration (Vz/F); and total body clearance of drug calculated after extravascular administration (e.g., apparent oral clearance) (CL/F). AUC was estimated by the sum of partial areas: partial areas were calculated using the linear (if C i ≤ C i+1) or the logarithmic (if C i > C i+1) trapezoidal rules. The quality of the half-life calculation was assessed based on graphs showing the concentration–time profile. For reliable calculation of the half-life, at least three data points (concentration/time values) were used. The extrapolated portion of the AUC from the last measured data point C(t n) to infinity was calculated using the concentration C last,calc, which was calculated from the log-linear regression line used for half-life calculation rather than C(t n). In addition, appropriate pharmacokinetic parameters were derived from the total radioactivity-versus-time data in blood and plasma.

Data set [2] is described as follows: Safety assessments in healthy male subjects. To be noted: single 120 mg dose, four subjects. The format is in vivo, human. The method, then: Blood pressure, pulse rate, electrocardiogram, physical examination, urine drug screening, and adverse events were evaluated throughout the study. The investigator obtained and recorded all the observed or reported adverse events, the severity (mild, moderate, or severe) of the events, and the relationship to study drug (in the investigator’s opinion).

Details of data set [3]: method as in PMID 22421192, PMID 22568966. Conditions: steady state; cited from earlier work.
Details of data set [4]: method as in PMID 24896071. To be noted: co-administration of ketoconazole with a single 160 mg dose of regorafenib; cited from earlier work.
For the next data set, the system named is CYP3A4. The arrangement: method as in PMID 24896071, PMID 27734608. Conditions: in vitro data; cited from earlier work.
A further data set has as its system UGT1A9. The arrangement: method as in PMID 24896071, PMID 27734608. Conditions: in vitro data; cited from earlier work.
[5] abbreviates: male, human, regorafenib in plasma, LC–MS/MS, single oral 120 mg solution, N = 4, geometric mean (%CV).

Take `CNC(=O)c1cc(Oc2ccc(NC(=O)Nc3ccc(Cl)c(C(F)(F)F)c3)c(F)c2)ccn1` [Regorafenib, 4-[4-({[4-chloro-3-(trifluoromethyl)phenyl]carbamoyl}amino)-3-fluorophenoxy]-N-methylpyridine-2-carboxamide]: in data set [1] (human, oral, 120 mg, except for subject 003, read-out: Half-lives for regorafenib, range between subjects), the half-life lay in the range of 39 to 48 h. Moreover, in data set [1] (human, oral, 120 mg, subject 003, read-out: Calculated t 1/2 for regorafenib (converted)), the half-life was about 62 h. In data set [1] (male, human, oral, 120 mg, regorafenib in plasma, geometric mean (%CV), N = 4, read-out: Vz/F), the Vd/F was determined as 216 L. Also, the time to peak (Tmax) in data set [1] (male, human, oral, 120 mg, regorafenib in plasma, median (range), N = 4) was found to be 1.25 h. The half-life in data set [1] (male, human, oral, 120 mg, regorafenib in plasma, geometric mean (%CV), N = 4, read-out: t 1/2 (converted)) was 48.6 h. In data set [1] (setting [5]), the AUC is 39000 ng·h/mL and the Cmax was 1580 ng/mL. The CL/F in data set [1] (regorafenib in plasma, geometric mean (%CV), N = 4) is recorded as 3.08 (34.9) L/h. In addition, the “Electrocardiograms, laboratory investigations, and vital signs” value in data set [2] is “no clinically relevant changes”. Also, the Treatment-emergent adverse events entry in data set [2] (event considered unrelated to study drug) is “mild, non-serious headache”. In data set [3], the “Secondary maximum of plasma concentration–time profile” value is 6 to 8 h and the “Tertiary maximum of plasma concentration–time profile” value is listed as about 24 h. Further, in data set [4], the “Increase in mean AUC” value was 30–40% and the “Increase in mean C max” value is given as 30–40%. In addition, the “Enzyme catalyzing oxidative biotransformation” value with CYP3A4 was “predominantly catalyzed by CYP3A4”. For the same compound, in the data set on UGT1A9, the “Enzyme catalyzing conjugation with glucuronic acid” value is on record as “by UGT1A9”.

What is called Tmax is the time at which the peak concentration occurs. As a reminder, the AUC is the area under the concentration-time curve, a measure of exposure. Read a low AUC as low exposure. What is called Cmax is the peak of the concentration-time curve.
